# Assay results reported in patent US20170118987A1, “SYNERGISTIC HERBICIDAL COMPOSITION AND USE THEREOF” (ROTAM AGROCHEM INTERNATIONAL CO., LTD, priority 2015, published 2017).
# Columns and labels:
# [1] = Stability of iodosulfuron-methyl-sodium solid forms; assay type: physicochemical; details: hydrolysis when dissolved or dispersed in water and during storage exposed to moisture
# [2] = compared with the amorphous state; from U.S. Ser. No. 14/926,133; cited from earlier work
structure (smiles),measurement,setting,value
"COC(=O)c1ccc(I)cc1S(=O)(=O)NC(=O)Nc1nc(C)nc(OC)n1.[Na] [sodium salt of methyl 4-iodo-2-[[[[(4-methoxy-6-methyl-1,3,5-triazin-2-yl)amino]carbonyl]amino]sulfonyl]benzoate]",stability,[1],highly unstable
same,stability in formulations,[2],improved stability
